Calls of active or inactive are those of the source. The calls are words filed in the database; no cut-off is given here.
Legend:
T47D = test: Cytotoxicity against human T47D cells after 48 hrs by MTT assay; type: cell-based
[1] = Neurotoxicity in ip dosed mouse assessed as minimal motor impairment measured for 1 min by rotarod test; type: toxicity, organism-based; settings: in vivo
[2] = Protective index, ratio of TD50 for ip dosed mouse neurotoxicity to ED50 for protection against 60 Hz electroshock-induced seizure in ip dosed mouse; type: toxicity, organism-based; settings: in vivo, read-out: Ratio TD50/ED50
Mus musculus [3] = test: Anticonvulsant activity against pentylenetetrazole-induced seizures in ip dosed mouse incubated for 30 mins prior to pentylenetetrazole challenge measured after 30 mins; type: functional
Mus musculus [4] = test: Anticonvulsant activity against pentylenetetrazole-induced seizures in mouse at 1 to 10 mg/kg, ip incubated for 30 mins prior to PTZ challenge measured after 30 mins in presence of benzodiazepine receptor antagonist flumazenil; type: functional, organism-based
MDA-MB-231 = test: Cytotoxicity against human MDA-MB-231 cells after 48 hrs by MTT assay; type: cell-based; settings: MDA-MB-231, 48 h
[5] = Protective index, ratio of TD50 for ip dosed mouse neurotoxicity to ED50 for protection against PTZ-induced seizure in ip dosed mouse; type: toxicity, organism-based; settings: in vivo, read-out: Ratio TD50/ED50
Mus musculus [6] = test: Anticonvulsant activity against maximal electroshock-induced seizures in ip dosed mouse assessed as protection against hind limb tonic extension incubated for 30 mins prior to 60 Hz maximal electroshock challenge measured for 30 s; type: functional; settings: Hindlimb
MCF7 = test: Cytotoxicity against human MCF7 cells after 48 hrs by MTT assay; type: cell-based; settings: MCF7, 48 h
Mus musculus [7] = test: Potency index, ratio of phenobarbital ED50 to compound ED50 for protection against maximal electroshock-induced seizures in ip dosed mouse; type: functional

| SMILES | IC50 (T47D) [µM] | TD50 at 1 min [1] [mg/kg] | selectivity ratio [2] | ED50 (Mus musculus [3]) [mg/kg] | Activity (Mus musculus [4]) | IC50 (MDA-MB-231) [µM] | selectivity ratio [5] | ED50 (Mus musculus [6]) [mg/kg] | IC50 (MCF7) [µM] | Ratio ED50 (Mus musculus [7]) |
| --- | --- | --- | --- | --- | --- | --- | --- | --- | --- | --- |
| COc1ccc(-c2noc(Cn3c4ccccc4c(=O)c4cc(Cl)ccc43)n2)cc1 | > 50 | 438 | 118 | 2.08 | inactive | > 50 | 211 | 3.71 | > 50 |  |
| CCC1(c2ccccc2)C(=O)NC(=O)NC1=O [PHENOBARBITAL] |  | 68.9 | 3.3 | 12.4 |  |  | 5.5 | 20.6 |  |  |
| CCc1ccc2c(c1)c(=O)c1ccccc1n2Cc1nc(-c2ccc(C)cc2)no1 | > 50 | 496 | 59.6 | 18.9 |  | > 50 | 26.1 | 8.31 | > 50 |  |
| Cc1ccc(-c2noc(Cn3c4ccccc4c(=O)c4cc(Cl)ccc43)n2)cc1 | > 50 | 483 | 216 | 6.25 |  | > 50 | 77.3 | 2.24 | > 50 | 7 |
| Cc1ccc(-c2noc(Cn3c4ccccc4c(=O)c4ccccc43)n2)cc1 | > 50 | 538 | 214 | 6.37 |  | > 50 | 84.5 | 2.52 | > 50 | 7 |
| Cc1ccc2c(c1)c(=O)c1ccccc1n2Cc1nc(-c2ccc(Cl)cc2)no1 | > 50 | 475 | 72.7 | 15.2 |  | > 50 | 31.3 | 6.53 | > 50 |  |
| COc1ccc(-c2noc(Cn3c4ccccc4c(=O)c4cc(Br)ccc43)n2)cc1 | > 50 | 471 | 54.1 | 6.21 |  | > 50 | 75.8 | 8.71 | > 50 |  |
| O=c1c2ccccc2n(Cc2nc(-c3ccc(Cl)cc3)no2)c2ccccc12 | > 50 | 528 | 148 | 5.78 |  | > 50 | 91.3 | 3.57 | > 50 |  |
| COc1ccc2c(c1)c(=O)c1ccccc1n2Cc1nc(-c2ccc(C)cc2)no1 | > 50 | 522 | 160 | 6.32 |  | > 50 | 82.4 | 3.25 | > 50 |  |
| CN1C(=O)CN=C(c2ccccc2)c2cc(Cl)ccc21 [DIAZEPAM] |  |  |  | 0.68 |  |  |  | 0.98 |  |  |
| O=c1c2ccccc2n(Cc2nc(-c3ccc(Cl)cc3)no2)c2ccc(Br)cc12 | > 50 | 512 | 178 | 7.57 |  | > 50 | 67.6 | 2.87 | > 50 | 7 |
| O=c1c2ccccc2n(Cc2nc(-c3ccc(Cl)cc3)no2)c2ccc(Cl)cc12 | > 50 | 454 | 172 | 4.16 |  | > 50 | 109 | 2.64 | > 50 | 7 |
| Cc1ccc(-c2noc(Cn3c4ccccc4c(=O)c4cc(Br)ccc43)n2)cc1 | > 50 | 594 | 116 | > 50 |  | > 50 | < 11.9 | 5.12 | > 50 |  |
| COc1ccc(-c2noc(Cn3c4ccccc4c(=O)c4cc(OC)ccc43)n2)cc1 | > 50 | 462 | 191 | 2.12 |  | > 50 | 217 | 2.42 | > 50 | 7 |
| Cc1ccc(-c2noc(Cn3c4ccccc4c(=O)c4cc(C)ccc43)n2)cc1 | > 50 | 542 | 196 | > 50 |  | > 50 | < 10.8 | 2.77 | > 50 | 7 |
| COc1ccc2c(c1)c(=O)c1ccccc1n2Cc1nc(-c2ccc(Cl)cc2)no1 | > 50 | 553 | 150 | 5.22 |  | > 50 | 106 | 3.68 | > 50 |  |
| COc1cc([C@@H]2c3cc4c(cc3[C@@H](O[C@@H]3O[C@@H]5CO[C@@H](C)O[C@H]5[C@H](O)[C@H]3O)[C@H]3COC(=O)[C@H]23)OCO4)cc(OC)c1O [ETOPOSIDE] | 11.8 |  |  |  |  | 15.7 |  |  |  |  |
